Measurements published in PubChem BioAssay AID220 (DTP/NCI, 2004).
“And” between values parts separate entries of the source, which are not always exact repeats. Identical values can stand only once. Results filed as inconclusive are left out.

Test system: CD8F1 mice, subcutaneous mammary adenocarcinoma, T/C%
Test: NCI In Vivo Anticancer Drug Screen. Data for tumor model Mammary Adenocarcinoma CD8F1 (subcutaneous) in CD8F1
Conditions: higher = larger tumour
How it was run: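 Ratio of treated to vehicle-control outcome, based on either survival or tumor size, in mice bearing transplantable tumors given the test compound.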

[1] = endpoint: median tumor weight change, dose: 125.0 mg/kg/injection, schedule: Q01DX001 (ip), vehicle: Klucel (hydroxypropylcellulose) (HPC)
[2] = endpoint: median tumor weight change, dose: 250.0 mg/kg/injection, schedule: Q01DX001 (ip), vehicle: Klucel (hydroxypropylcellulose) (HPC)
[3] = endpoint: median tumor weight change, dose: 500.0 mg/kg/injection, schedule: Q01DX001 (ip), vehicle: Klucel (hydroxypropylcellulose) (HPC)
[4] = endpoint: median tumor weight change, dose: 1000.0 mg/kg/injection, schedule: Q01DX001 (ip), vehicle: Klucel (hydroxypropylcellulose) (HPC)
[5] = endpoint: median tumor weight change, dose: 125.0 mg/kg/injection, schedule: Q01DX001 (ip), vehicle: saline with Tween-80
[6] = endpoint: median tumor weight change, dose: 250.0 mg/kg/injection, schedule: Q01DX001 (ip), vehicle: saline with Tween-80
[7] = endpoint: median tumor weight change, dose: 1000.0 mg/kg/injection, schedule: Q01DX001 (ip), vehicle: saline with Tween-80
[8] = endpoint: median tumor weight change, dose: 450.0 mg/kg/injection, schedule: Q01DX001 (ip), vehicle: saline with Tween-80
[9] = endpoint: median tumor weight change, dose: 25.0 mg/kg/injection, schedule: Q01DX001 (ip), vehicle: Klucel (hydroxypropylcellulose) (HPC)
[10] = endpoint: median tumor weight change, dose: 50.0 mg/kg/injection, schedule: Q01DX001 (ip), vehicle: Klucel (hydroxypropylcellulose) (HPC)
[11] = endpoint: median tumor weight change, dose: 100.0 mg/kg/injection, schedule: Q01DX001 (ip), vehicle: Klucel (hydroxypropylcellulose) (HPC)
[12] = endpoint: median tumor weight change, dose: 200.0 mg/kg/injection, schedule: Q01DX001 (ip), vehicle: Klucel (hydroxypropylcellulose) (HPC)

C/C=C/C=C/c1cc2cc3c(c(O)c2c(=O)[nH]1)C1(CC3)C(O)=c2c(=O)c3c(=O)cc(OC)c(=O)c=3c(=O)c2=C1O (stereo unspecified)
T/C (endpoint: median tumor weight change, dose: 2.5 mg/kg/injection, schedule: Q01DX001 (ip), vehicle: DMSO): 106 % of control | T/C (endpoint: median tumor weight change, dose: 5.0 mg/kg/injection, schedule: Q01DX001 (ip), vehicle: DMSO): 79 % of control

Oc1c(Cl)cc(Cl)cc1C=NCCSc1ccc(Cl)cc1
T/C (endpoint: median tumor weight change, dose: 62.5 mg/kg/injection, schedule: Q01DX001 (ip), vehicle: Klucel (hydroxypropylcellulose) (HPC)): 99 % of control and 100 % of control | T/C [1]: 89 % of control and 104 % of control | T/C [2]: 87 % of control and 103 % of control

O=c1c(O)c(-c2ccc(O)c(O)c2)oc2cc(O)cc(O)c12
T/C (endpoint: median tumor weight (est.), dose: 25.0 mg/kg/injection, schedule: Q07DX005 (ip), vehicle: other): 52 % of control | T/C (endpoint: median tumor weight (est.), dose: 50.0 mg/kg/injection, schedule: Q07DX005 (ip), vehicle: other): 114 % of control | T/C (endpoint: median tumor weight (est.), dose: 100.0 mg/kg/injection, schedule: Q07DX005 (ip), vehicle: other): 98 % of control | T/C (endpoint: median tumor weight (est.), dose: 400.0 mg/kg/injection, schedule: Q07DX005 (ip), vehicle: other): 49 % of control

CC1=CC2C(O)(CC(CO)=CC3C4C(C)(C)C4(OC(=O)c4ccccc4)C(OC(=O)c4ccccc4)C(C)C32O)C1=O (stereo unspecified)
T/C (endpoint: median tumor weight change, dose: 0.63 mg/kg/injection, schedule: Q01DX001 (ip), vehicle: saline with Tween-80): 88 % of control | T/C (endpoint: median tumor weight change, dose: 1.25 mg/kg/injection, schedule: Q01DX001 (ip), vehicle: saline with Tween-80): 58 % of control | T/C (endpoint: median tumor weight change, dose: 5.0 mg/kg/injection, schedule: Q01DX001 (ip), vehicle: saline with Tween-80): 96 % of control

COc1ccc2ccccc2c1C1NC(=O)c2ccccc2N1 (stereo unspecified)
T/C [1]: 88 % of control | T/C [2]: 118 % of control | T/C [3]: 97 % of control | T/C [4]: 60 % of control

CCN(CC)c1ccc2cc(-c3nc4ccccc4n3C)c(=O)oc2c1
T/C (endpoint: median tumor weight (est.), dose: 25.0 mg/kg/injection, schedule: Q07DX005 (ip), vehicle: Klucel (hydroxypropylcellulose) (HPC)): 62 % of control and 84 % of control | T/C (endpoint: median tumor weight (est.), dose: 50.0 mg/kg/injection, schedule: Q07DX005 (ip), vehicle: Klucel (hydroxypropylcellulose) (HPC)): 79 % of control | T/C (endpoint: median tumor weight (est.), dose: 100.0 mg/kg/injection, schedule: Q07DX005 (ip), vehicle: Klucel (hydroxypropylcellulose) (HPC)): 35 % of control | T/C (endpoint: median tumor weight (est.), dose: 200.0 mg/kg/injection, schedule: Q07DX005 (ip), vehicle: Klucel (hydroxypropylcellulose) (HPC)): 24 % of control | T/C [1]: 92 % of control | T/C [2]: 80 % of control | T/C [3]: 37 % of control

CC1(C)COCN1COC1CCCCC1
T/C [5]: 79 % of control

[Cl][Mn][Cl]
T/C (endpoint: median tumor weight (est.), dose: 64.0 mg/kg/injection, schedule: Q07DX005 (ip), vehicle: saline): 111 % of control | T/C (endpoint: median tumor weight (est.), dose: 128.0 mg/kg/injection, schedule: Q07DX005 (ip), vehicle: saline): 66 % of control

N=c1c(C(=O)OCc2ccccc2)ncc(CCl)n1O
T/C [6]: 78 % of control and 94 % of control | T/C (endpoint: median tumor weight change, dose: 500.0 mg/kg/injection, schedule: Q01DX001 (ip), vehicle: saline with Tween-80): 80 % of control and 82 % of control | T/C [7]: 65 % of control and 81 % of control

CC1(C)N=C(N)N=C(N)N1c1ccc(CCCCc2ccc(S(=O)(=O)F)cc2Cl)c(Cl)c1
T/C (endpoint: median tumor weight (est.), dose: 12.5 mg/kg/injection, schedule: Q07DX005 (ip), vehicle: other): 95 % of control | T/C (endpoint: median tumor weight (est.), dose: 12.5 mg/kg/injection, schedule: Q07DX005 (ip), vehicle: saline): 42 % of control | T/C (endpoint: median tumor weight (est.), dose: 12.5 mg/kg/injection, schedule: Q07DX005 (ip), vehicle: suspension in saline): 114 % of control | T/C (endpoint: median tumor weight (est.), dose: 25.0 mg/kg/injection, schedule: Q07DX005 (ip), vehicle: saline): 60 % of control | T/C (endpoint: median tumor weight (est.), dose: 25.0 mg/kg/injection, schedule: Q07DX005 (ip), vehicle: suspension in saline): 105 % of control | T/C (endpoint: median tumor weight (est.), dose: 50.0 mg/kg/injection, schedule: Q07DX005 (ip), vehicle: saline): 39 % of control | T/C (endpoint: median tumor weight (est.), dose: 50.0 mg/kg/injection, schedule: Q07DX005 (ip), vehicle: suspension in saline): 46 % of control | T/C (endpoint: median tumor weight (est.), dose: 100.0 mg/kg/injection, schedule: Q07DX005 (ip), vehicle: saline): 20 % of control | T/C (endpoint: median tumor weight (est.), dose: 100.0 mg/kg/injection, schedule: Q07DX005 (ip), vehicle: suspension in saline): 26 % of control | T/C (endpoint: median tumor weight (est.), dose: 200.0 mg/kg/injection, schedule: Q07DX005 (ip), vehicle: saline): 5 % of control | T/C (endpoint: median tumor weight (est.), dose: 200.0 mg/kg/injection, schedule: Q07DX005 (ip), vehicle: suspension in saline): 2 % of control | T/C (endpoint: median tumor weight change, dose: 90.0 mg/kg/injection, schedule: Q01DX001 (ip), vehicle: saline with Tween-80): 50 % of control | T/C (endpoint: median tumor weight change, dose: 100.0 mg/kg/injection, schedule: Q01DX001 (ip), vehicle: saline with Tween-80): 53 % of control | T/C (endpoint: median tumor weight change, dose: 112.5 mg/kg/injection, schedule: Q01DX001 (ip), vehicle: saline with Tween-80): 84 % of control | T/C (endpoint: median tumor weight change, dose: 133.0 mg/kg/injection, schedule: Q01DX001 (ip), vehicle: saline with Tween-80): 64 % of control | T/C (endpoint: median tumor weight change, dose: 200.0 mg/kg/injection, schedule: Q01DX001 (ip), vehicle: saline with Tween-80): 12 % of control and 25 % of control | T/C (endpoint: median tumor weight change, dose: 225.0 mg/kg/injection, schedule: Q01DX001 (ip), vehicle: saline with Tween-80): 49 % of control | T/C (endpoint: median tumor weight change, dose: 300.0 mg/kg/injection, schedule: Q01DX001 (ip), vehicle: saline with Tween-80): 27 % of control | T/C [8]: 12 % of control

C#C[C@]1(O)CC[C@H]2[C@@H]3CCc4cc(O)ccc4[C@H]3CC[C@@]21C
T/C (endpoint: median tumor weight change, dose: 12.5 mg/kg/injection, schedule: Q01DX001 (ip), vehicle: Klucel (hydroxypropylcellulose) (HPC)): 92 % of control | T/C [9]: 78 % of control | T/C [10]: 75 % of control | T/C (endpoint: median tumor weight change, dose: 56.0 mg/kg/injection, schedule: Q01DX001 (ip), vehicle: Klucel (hydroxypropylcellulose) (HPC)): 60 % of control | T/C [11]: 63 % of control | T/C (endpoint: median tumor weight change, dose: 112.0 mg/kg/injection, schedule: Q01DX001 (ip), vehicle: Klucel (hydroxypropylcellulose) (HPC)): 75 % of control | T/C [12]: 46 % of control | T/C (endpoint: median tumor weight change, dose: 225.0 mg/kg/injection, schedule: Q01DX001 (ip), vehicle: Klucel (hydroxypropylcellulose) (HPC)): 66 % of control | T/C (endpoint: median tumor weight change, dose: 400.0 mg/kg/injection, schedule: Q01DX001 (ip), vehicle: Klucel (hydroxypropylcellulose) (HPC)): 52 % of control | T/C (endpoint: median tumor weight change, dose: 450.0 mg/kg/injection, schedule: Q01DX001 (ip), vehicle: Klucel (hydroxypropylcellulose) (HPC)): 101 % of control | T/C [8]: 101 % of control

CCCCOCN(COCCCC)C(C)Cc1ccccc1 (stereo unspecified)
T/C (endpoint: median tumor weight change, dose: 62.5 mg/kg/injection, schedule: Q01DX001 (ip), vehicle: saline with Tween-80): 100 % of control | T/C [5]: 85 % of control | T/C [6]: 110 % of control | T/C [7]: 80 % of control

Cn1cc(C2NC(=O)c3ccccc3N2)c2ccccc21 (stereo unspecified)
T/C [9]: 85 % of control | T/C [10]: 85 % of control | T/C [11]: 91 % of control | T/C [12]: 71 % of control | T/C [3]: 68 % of control | T/C [4]: 33 % of control

O=C(O)CCCc1ccc(N(CCCl)CCCl)cc1
T/C (endpoint: median tumor weight (est.), dose: 2.0 mg/kg/injection, schedule: Q07DX005 (ip), vehicle: saline): 234 % of control and 83 % of control | T/C (endpoint: median tumor weight (est.), dose: 4.0 mg/kg/injection, schedule: Q07DX005 (ip), vehicle: saline with Tween-80): 77 % of control | T/C (endpoint: median tumor weight (est.), dose: 7.5 mg/kg/injection, schedule: Q07DX005 (ip), vehicle: Klucel (hydroxypropylcellulose) (HPC)): 88 % of control | T/C (endpoint: median tumor weight (est.), dose: 8.0 mg/kg/injection, schedule: Q07DX005 (ip), vehicle: saline with Tween-80): 46 % of control | T/C (endpoint: median tumor weight (est.), dose: 15.0 mg/kg/injection, schedule: Q07DX005 (ip), vehicle: Klucel (hydroxypropylcellulose) (HPC)): 26 % of control | T/C (endpoint: median tumor weight (est.), dose: 16.0 mg/kg/injection, schedule: Q07DX005 (ip), vehicle: saline with Tween-80): 43 % of control | T/C (endpoint: median tumor weight (est.), dose: 30.0 mg/kg/injection, schedule: Q07DX005 (ip), vehicle: Klucel (hydroxypropylcellulose) (HPC)): 22 % of control | T/C (endpoint: median tumor weight (est.), dose: 32.0 mg/kg/injection, schedule: Q07DX005 (ip), vehicle: saline with Tween-80): 16 % of control | T/C (endpoint: median tumor weight (est.), dose: 32.0 mg/kg/injection, schedule: Q07DX005 (ip), vehicle: saline): 3 % of control and 14 % of control | T/C (endpoint: median tumor weight change, dose: 16.0 mg/kg/injection, schedule: Q01DX001 (ip), vehicle: saline with Tween-80): 57 % of control | T/C (endpoint: median tumor weight change, dose: 32.0 mg/kg/injection, schedule: Q01DX001 (ip), vehicle: saline with Tween-80): 62 % of control | T/C (endpoint: median tumor weight change, dose: 64.0 mg/kg/injection, schedule: Q01DX001 (ip), vehicle: saline with Tween-80): 38 % of control
